Experimental data reported in patent publication US12643903B2, “Bifunctional compounds for degradation of EGFR and related methods of use” (BeiGene, Ltd., priority 2020, dated 2026).

How the values were obtained:
Type in all cases: cell-based
Settings in all cases: 16 h treatment, EGFR degradation by HTRF
EGFR = target: T1, EGFR (Homo sapiens, UniProt P00533, DEL746-750); assay: Cell Degradation 2: EGFR degradation in HCC827 cells, HTRF assay
T1 construct: endogenous in cells; host or cells: HCC827
T1 sequence (P00533 with tags, fused parts or gaps DEL746-750): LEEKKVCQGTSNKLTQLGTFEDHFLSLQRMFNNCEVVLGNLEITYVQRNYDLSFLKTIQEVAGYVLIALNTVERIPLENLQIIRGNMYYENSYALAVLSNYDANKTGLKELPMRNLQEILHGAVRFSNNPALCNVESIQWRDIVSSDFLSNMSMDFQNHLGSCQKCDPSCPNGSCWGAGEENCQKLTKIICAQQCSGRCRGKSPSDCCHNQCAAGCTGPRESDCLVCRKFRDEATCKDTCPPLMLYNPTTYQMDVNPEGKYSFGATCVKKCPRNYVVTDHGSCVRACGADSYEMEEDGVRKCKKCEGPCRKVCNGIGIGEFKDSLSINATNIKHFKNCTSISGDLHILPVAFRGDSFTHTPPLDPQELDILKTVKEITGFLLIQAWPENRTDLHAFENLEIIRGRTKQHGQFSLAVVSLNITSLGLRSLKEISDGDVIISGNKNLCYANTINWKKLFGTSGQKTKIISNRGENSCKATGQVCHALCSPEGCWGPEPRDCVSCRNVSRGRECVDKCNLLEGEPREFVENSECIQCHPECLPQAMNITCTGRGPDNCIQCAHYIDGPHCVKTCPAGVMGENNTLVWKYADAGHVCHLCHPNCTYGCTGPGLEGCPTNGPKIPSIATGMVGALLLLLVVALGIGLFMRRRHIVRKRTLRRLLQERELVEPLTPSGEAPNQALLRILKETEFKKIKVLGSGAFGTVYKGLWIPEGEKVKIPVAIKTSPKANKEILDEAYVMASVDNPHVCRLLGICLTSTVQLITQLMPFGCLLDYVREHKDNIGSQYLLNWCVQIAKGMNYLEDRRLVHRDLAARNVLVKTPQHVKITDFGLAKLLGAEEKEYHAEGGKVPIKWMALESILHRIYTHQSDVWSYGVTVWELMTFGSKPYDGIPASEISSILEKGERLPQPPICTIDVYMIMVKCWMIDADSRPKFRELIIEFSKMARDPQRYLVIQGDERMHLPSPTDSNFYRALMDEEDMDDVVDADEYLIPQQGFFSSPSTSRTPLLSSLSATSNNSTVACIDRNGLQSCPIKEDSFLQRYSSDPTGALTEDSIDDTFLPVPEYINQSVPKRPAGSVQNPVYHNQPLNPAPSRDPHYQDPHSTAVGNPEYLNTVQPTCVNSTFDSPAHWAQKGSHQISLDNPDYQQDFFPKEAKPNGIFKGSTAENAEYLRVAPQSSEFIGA
T1 sequence (Q96SW2 whole entry partner): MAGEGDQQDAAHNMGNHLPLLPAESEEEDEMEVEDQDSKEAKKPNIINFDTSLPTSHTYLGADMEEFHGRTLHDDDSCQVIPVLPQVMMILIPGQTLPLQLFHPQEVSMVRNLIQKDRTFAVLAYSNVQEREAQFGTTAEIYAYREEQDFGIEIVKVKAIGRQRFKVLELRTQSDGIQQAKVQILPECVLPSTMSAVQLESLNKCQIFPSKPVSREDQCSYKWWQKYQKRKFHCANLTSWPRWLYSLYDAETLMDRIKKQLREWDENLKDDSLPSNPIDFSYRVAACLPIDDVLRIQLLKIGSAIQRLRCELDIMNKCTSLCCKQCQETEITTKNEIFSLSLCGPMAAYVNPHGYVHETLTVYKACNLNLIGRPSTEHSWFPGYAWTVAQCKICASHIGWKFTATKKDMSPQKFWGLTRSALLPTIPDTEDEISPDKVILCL
Summary of the method: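 Compound-treated HCC827 cells were lysed after 16 h and EGFR measured by HTRF (337 nm excitation, 665/620 nm emission) after overnight antibody incubation at room temperature. DC50 came from a four-parameter fit of percent inhibition against compound concentration.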

EGFR DTC = assay: Cell Degradation 3: EGFR degradation in BaF3 cells (DTC), HTRF assay
Procedure: (§1) Cell Degradation 3 Cell Treatment
(§2) BaF3 cells are treated with compounds diluted in 0.2% DMSO, dilution is done according to the following protocol: (1) make 500× stock solution in DMSO from 5 mM by 4-fold dilution, total 8 doses were included; (2) make 2× solution in cell culture medium by transferring 0.5 μl 500× stock solution into 125 μl medium; (3) 30 μl of 2× solution is added to cells and incubate for 16 h.
(§3) After 16 h treatment, add 20 μl 4×lysis buffer to each well; seal the plate and incubate 1 hour at room temperature on a plate shaker; Once the cells are lysed, 16 μL of cell lysate are transferred to a PE 384-well HTRF detection plate (for triple mutant cells, the lysate were diluted by the qual volume 1×lysis buffer before transfer); 4 μL of pre-mixed HTRF antibodies are added to each well; Cover the plate with a plate sealer, spin 1000 rpm for 1 min, Incubate overnight at room temperature; Read on BMG PheraStar with HTRF protocol (337 nm-665 nm-620 nm).
(§4) The IC50 (DC50) value of a compound can be obtained by fitting the following equation Y=Bottom+(TOP−Bottom)/(1+((IC50/X)^hillslope))
(§5) Wherein, X and Y are known values, and IC50, Hillslope, Top and Bottom are the parameters obtained by fitting with software. Y is the inhibition percentage (calculated from the equation), X is the concentration of the compound; IC50 is the concentration of the compound when the 50% inhibition is reached. The smaller the IC50 value is, the stronger the inhibitory ability of the compound is. Vice versa, the higher the IC50 value is, the weaker the ability the inhibitory ability of the compound is; Hillslope represents the slope of the fitted curve, generally around 1*; Bottom represents the minimum value of the curve obtained by data fitting, which is generally 0%±20%; Top represents the maximum value of the curve obtained by data fitting, which is generally 100%±20%. The experimental data were fitted by calculating and analyzing with Dotmatics data analysis software.

EGFR LTC = target: T2, EGFR LTC (Homo sapiens, UniProt P00533, C797S/L858R/T790M); assay: Cell Degradation 3: EGFR degradation in BaF3 cells (LTC), HTRF assay
T2 construct: expressed in transfected cells; host or cells: BaF3
T2 sequence (P00533 25-1210 T790M/C797S/L858R): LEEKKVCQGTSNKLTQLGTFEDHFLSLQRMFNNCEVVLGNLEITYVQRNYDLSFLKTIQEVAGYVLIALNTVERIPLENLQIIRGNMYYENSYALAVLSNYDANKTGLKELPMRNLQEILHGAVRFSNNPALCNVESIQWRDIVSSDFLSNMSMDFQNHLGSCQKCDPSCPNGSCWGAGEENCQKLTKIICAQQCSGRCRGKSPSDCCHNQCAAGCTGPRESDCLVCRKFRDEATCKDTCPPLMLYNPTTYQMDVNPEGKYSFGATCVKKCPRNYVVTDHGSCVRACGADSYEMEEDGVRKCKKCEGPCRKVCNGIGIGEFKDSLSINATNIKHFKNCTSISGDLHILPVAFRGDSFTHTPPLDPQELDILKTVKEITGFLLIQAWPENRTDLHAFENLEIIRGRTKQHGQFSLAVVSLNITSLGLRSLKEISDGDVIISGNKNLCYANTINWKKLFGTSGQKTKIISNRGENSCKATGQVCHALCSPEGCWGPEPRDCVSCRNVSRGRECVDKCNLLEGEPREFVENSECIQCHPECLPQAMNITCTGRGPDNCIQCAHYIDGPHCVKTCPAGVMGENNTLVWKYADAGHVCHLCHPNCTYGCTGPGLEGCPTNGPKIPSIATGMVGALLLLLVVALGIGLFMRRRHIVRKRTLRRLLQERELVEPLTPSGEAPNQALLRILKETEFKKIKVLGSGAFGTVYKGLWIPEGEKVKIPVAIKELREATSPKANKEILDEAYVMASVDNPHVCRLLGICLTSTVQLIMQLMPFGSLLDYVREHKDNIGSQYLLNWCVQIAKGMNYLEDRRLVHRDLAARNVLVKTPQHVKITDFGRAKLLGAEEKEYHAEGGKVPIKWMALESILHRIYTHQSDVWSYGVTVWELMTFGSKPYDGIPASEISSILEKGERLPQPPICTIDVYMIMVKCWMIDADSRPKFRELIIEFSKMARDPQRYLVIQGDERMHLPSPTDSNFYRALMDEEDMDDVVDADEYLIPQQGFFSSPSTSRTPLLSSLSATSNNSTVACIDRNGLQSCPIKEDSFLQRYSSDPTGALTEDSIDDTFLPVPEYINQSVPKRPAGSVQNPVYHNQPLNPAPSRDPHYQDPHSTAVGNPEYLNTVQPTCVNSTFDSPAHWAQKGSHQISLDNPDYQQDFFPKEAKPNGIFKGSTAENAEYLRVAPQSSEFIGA
Procedure: as §1, §2, §3, §4, §5

DC50 (EGFR)	DC50 (EGFR DTC)	DC50 (EGFR LTC)	Compound
–	39 nM	57 nM	COc1cc(N2CCC(N3CCN(CC4CN(c5ccc(C6CCC(=O)NC6=O)c(F)c5)C4)CC3)CC2)c(C)cc1Nc1ncc(Br)c(Nc2cccc3c2N(S(C)(=O)=O)CC3)n1 (centres unmarked) [Example 169, 3-(4-(3-((4-(1-(4-((5-bromo-4-((1-(methylsulfonyl)indolin-7-yl)amino)pyrimidin-2-yl)amino)-5-methoxy-2-methylphenyl)piperidin-4-yl)piperazin-1-yl)methyl)azetidin-1-yl)-2-fluorophenyl)piperidine-2,6-dione]
–	8 nM	23 nM	COc1cc(N2CCC(N3CCN(C(=O)[C@H]4C[C@H](N(C)c5ccc(C6CCC(=O)NC6=O)cc5)C4)CC3)CC2)c(C)cc1Nc1ncc(Br)c(Nc2cccc3c2N(S(C)(=O)=O)CC3)n1 (some centres unmarked) [Example 170, 3-(4-(((1r,3r)-3-(4-(1-(4-((5-bromo-4-((1-(methylsulfonyl)indolin-7-yl)amino)pyrimidin-2-yl)amino)-5-methoxy-2-methylphenyl)piperidin-4-yl)piperazine-1-carbonyl)cyclobutyl)(methyl)amino)phenyl)piperidine-2,6-dione]
–	> 10000 nM	123 nM	COc1cc(N2CCC(N3CCN(C4CCN(c5cccc(C6CCC(=O)NC6=O)c5)CC4)CC3)CC2)c(C)cc1Nc1ncc(Br)c(Nc2cccc3c2N(S(C)(=O)=O)CC3)n1 (centres unmarked) [Example 177, 3-(3-(4-(4-(1-(4-((5-bromo-4-((1-(methylsulfonyl)indolin-7-yl)amino)pyrimidin-2-yl)amino)-5-methoxy-2-methylphenyl)piperidin-4-yl)piperazin-1-yl)piperidin-1-yl)phenyl)piperidine-2,6-dione]
–	77 nM	70 nM	COc1cc(N2CCC(N3CCN(C4CC(c5ccc(NC6CCC(=O)NC6=O)cc5)C4)CC3)CC2)c(C)cc1Nc1ncc(Br)c(Nc2cccc3c2N(S(C)(=O)=O)CC3)n1 (centres unmarked) [Example 182, 3-((4-(3-(4-(1-(4-((5-bromo-4-((1-(methylsulfonyl)indolin-7-yl)amino)pyrimidin-2-yl)amino)-5-methoxy-2-methylphenyl)piperidin-4-yl)piperazin-1-yl)cyclobutyl)phenyl)amino)piperidine-2,6-dione]
–	15 nM	27 nM	COc1cc(N2CCC(N3CCN(CCNc4cccc5c4CN(C4CCC(=O)NC4=O)C5=O)CC3)CC2)c(C)cc1Nc1ncc(Br)c(Nc2cccc3c2N(S(C)(=O)=O)CC3)n1 (centres unmarked) [Example 173, 3-(4-((2-(4-(1-(4-((5-bromo-4-((1-(methylsulfonyl)indolin-7-yl)amino)pyrimidin-2-yl)amino)-5-methoxy-2-methylphenyl)piperidin-4-yl)piperazin-1-yl)ethyl)amino)-1-oxoisoindolin-2-yl)piperidine-2,6-dione]
–	91 nM	100 nM	COc1cc(N2CCC(N3CCN(C[C@H]4C[C@H](N(C)c5ccc6c(c5)C(=O)N(C5CCC(=O)NC5=O)C6=O)C4)CC3)CC2)c(C)cc1Nc1ncc(Br)c(Nc2cccc3c2N(S(C)(=O)=O)CC3)n1 (some centres unmarked) [Example 165, 5-(((1r,3r)-3-((4-(1-(4-((5-bromo-4-((1-(methylsulfonyl)indolin-7-yl)amino)pyrimidin-2-yl)amino)-5-methoxy-2-methylphenyl)piperidin-4-yl)piperazin-1-yl)methyl)cyclobutyl)(methyl)amino)-2-(2,6-dioxopiperidin-3-yl)isoindoline-1,3-dione]

Continued, compound first:

Compound	DC50 (EGFR)	DC50 (EGFR DTC)	DC50 (EGFR LTC)
COc1cc(N2CCC(N3CCN(C(=O)C4CN(c5ccc6c(c5)CN(C5CCC(=O)NC5=O)C6=O)C4)CC3)CC2)c(C)cc1Nc1ncc(Br)c(Nc2cccc3c2N(S(C)(=O)=O)CC3)n1 (centres unmarked) [Example 172, 3-(5-(3-(4-(1-(4-((5-bromo-4-((1-(methylsulfonyl)indolin-7-yl)amino)pyrimidin-2-yl)amino)-5-methoxy-2-methylphenyl)piperidin-4-yl)piperazine-1-carbonyl)azetidin-1-yl)-1-oxoisoindolin-2-yl)piperidine-2,6-dione]	2 nM	4 nM	9 nM
COc1cc(N2CCC(N3CCN(C[C@H]4CCN(c5ccc6c(c5)C(=O)N(C5CCC(=O)NC5=O)C6=O)C4)CC3)CC2)c(C)cc1Nc1ncc(Br)c(Nc2cccc3c2N(S(C)(=O)=O)CC3)n1 (stereo partly drawn) [Example 156, 5-((R)-3-((4-(1-(4-((5-bromo-4-((1-(methylsulfonyl)indolin-7-yl)amino)pyrimidin-2-yl)amino)-5-methoxy-2-methylphenyl)piperidin-4-yl)piperazin-1-yl)methyl)pyrrolidin-1-yl)-2-(2,6-dioxopiperidin-3-yl)isoindoline-1,3-dione]	–	21 nM	33 nM
COc1cc(N2CCC(N3CCN(CCc4ccc(C5CCC(=O)NC5=O)c(F)c4)CC3)CC2)c(C)cc1Nc1nc(Nc2cccc3c2N(S(C)(=O)=O)CC3)c2cc[nH]c2n1 (centres unmarked) [Example 162, 3-(2-fluoro-4-(2-(4-(1-(5-methoxy-2-methyl-4-((4-((1-(methylsulfonyl)indolin-7-yl)amino)-7H-pyrrolo[2,3-d]pyrimidin-2-yl)amino)phenyl)piperidin-4-yl)piperazin-1-yl)ethyl)phenyl)piperidine-2,6-dione]	–	78 nM	> 10000 nM
COc1cc(N2CCC(N3CCN(CCOc4cccc5c4C(=O)N(C4CCC(=O)NC4=O)C5=O)CC3)CC2)c(C)cc1Nc1ncc(Br)c(Nc2cccc3c2N(S(C)(=O)=O)CC3)n1 (centres unmarked) [Example 166, 4-(2-(4-(1-(4-((5-bromo-4-((1-(methylsulfonyl)indolin-7-yl)amino)pyrimidin-2-yl)amino)-5-methoxy-2-methylphenyl)piperidin-4-yl)piperazin-1-yl)ethoxy)-2-(2,6-dioxopiperidin-3-yl)isoindoline-1,3-dione]	–	175 nM	247 nM
COc1cc(N2CCC(N3CCN(CC4CCN(c5ccc6c(c5)CN(C5CCC(=O)NC5=O)C6=O)CC4)CC3)CC2)c(C)cc1Nc1ncc(Br)c(Nc2cccc3c2N(S(C)(=O)=O)CC3)n1 (centres unmarked) [Example 175, 3-(5-(4-((4-(1-(4-((5-bromo-4-((1-(methylsulfonyl)indolin-7-yl)amino)pyrimidin-2-yl)amino)-5-methoxy-2-methylphenyl)piperidin-4-yl)piperazin-1-yl)methyl)piperidin-1-yl)-1-oxoisoindolin-2-yl)piperidine-2,6-dione]	–	17 nM	31 nM
COc1cc(N2CCC(N3CCN(CC4CN(c5ccc6c(c5)C(=O)N(C5CCC(=O)NC5=O)C6=O)C4)CC3)CC2)c(C)cc1Nc1ncc(Br)c(Nc2cccc3c2N(S(C)(=O)=O)CC3)n1 (centres unmarked) [Example 151, 5-(3-((4-(1-(4-((5-bromo-4-((1-(methylsulfonyl)indolin-7-yl)amino)pyrimidin-2-yl)amino)-5-methoxy-2-methylphenyl)piperidin-4-yl)piperazin-1-yl)methyl)azetidin-1-yl)-2-(2,6-dioxopiperidin-3-yl)isoindoline-1,3-dione]	–	14 nM	17 nM
COc1cc(N2CCC(N3CCN(C(=O)C4CN(c5ccc6c(c5)C(=O)N(C5CCC(=O)NC5=O)C6)C4)CC3)CC2)c(C)cc1Nc1ncc(Br)c(Nc2cccc3c2N(S(C)(=O)=O)CC3)n1 (centres unmarked) [Example 171, 3-(6-(3-(4-(1-(4-((5-bromo-4-((1-(methylsulfonyl)indolin-7-yl)amino)pyrimidin-2-yl)amino)-5-methoxy-2-methylphenyl)piperidin-4-yl)piperazine-1-carbonyl)azetidin-1-yl)-1-oxoisoindolin-2-yl)piperidine-2,6-dione]	–	4 nM	9 nM
COc1cc(N2CCC(N3CCN(CC4CCN(c5cc(F)c(C6CCC(=O)NC6=O)c(F)c5)CC4)CC3)CC2)c(C)cc1Nc1ncc(Br)c(Nc2cccc3c2N(S(C)(=O)=O)CC3)n1 (centres unmarked) [Example 181, 3-(4-(4-((4-(1-(4-((5-bromo-4-((1-(methylsulfonyl)indolin-7-yl)amino)pyrimidin-2-yl)amino)-5-methoxy-2-methylphenyl)piperidin-4-yl)piperazin-1-yl)methyl)piperidin-1-yl)-2,6-difluorophenyl)piperidine-2,6-dione]	–	43 nM	64 nM
